Assay results taken from patent US20100249172A1, “9-CHLORO NOSCAPINE AND ITS USE IN TREATING CANCERS, INCLUDING DRUG-RESISTANT CANCERS” (EMORY UNIVERSITY, priority 2007, published 2010).

Tests used:
MDA-MB-231 cells [1] = test: DAPI staining, cell morphology by fluorescence microscopy; assay type: cell-based, human; conditions: 25 μM, 72 hours
Protocol: FIG. 2 is a series of photographs showing the effect of 9-chloro-nos on the morphology of cancer cells. Morphologic criteria for apoptotic cell death include, for example, chromatin condensation with aggregation along the nuclear envelope and plasma membrane blebbing followed by separation into small, apoptotic bodies. Panels show morphological evaluation of nuclei stained with DAPI from control cells (upper panels) and cells treated with 25 μM concentration of 9-Cl-nos for 72 hours (lower panels) using fluorescence microscopy. […] (Scale bar=15 μm).
Cell morphology was evaluated by fluorescence microscopy following DAPI staining (Vectashield, Vector Labs, Inc., Burlingame, Calif.). MDA-MB-231 cells were grown on poly-L-lysine coated coverslips in 6-well plates and were treated with the halogenated analogs at 25 μM for 72 hours. After incubation, coverslips were fixed in cold methanol and washed with PBS, stained with DAPI, and mounted on slides. Images were captured using a BX60 microscope (Olympus, Tokyo, Japan) with an 8-bit camera (Dage-MTI, Michigan City, Ind.) and IP Lab software (Scanalytics, Fairfax, Va.). Apoptotic cells were identified by features characteristic of apoptosis (e.g. nuclear condensation, formation of membrane blebs and apoptotic bodies).

MDA-MB-231 cells [2] = test: Sulforhodamine B (SRB) cell proliferation assay; assay type: cell-based; conditions: Homo sapiens, MDA-MB-231, 72 hours drug treatment
Protocol: (§1) Sulforhodamine B (SRB) assay: The cell proliferation assay was performed in 96-well plates as described previously. Adherent cells (MCF-7 and MDA-MB-231) were seeded in 96-well plates at a density of 5×10^3 cells per well. They were treated with increasing concentrations of the halogenated analogs the next day while in log-phase growth. After 72 hours of drug treatment, cells were fixed with 50% trichloroacetic acid and stained with 0.4% sulforhodamine B dissolved in 1% acetic acid. After 30 minutes, cells were then washed with 1% acetic acid to remove the unbound dye. The protein-bound dye was extracted with 10 mM Tris base to determine the optical density at 564-nm wavelength.
(§2) Suspension cells (CEM) were seeded into 96-well plates at a density of 5×10^3 cells per well and were treated with increasing concentrations of all halogenated analogs for 72 hours. Measurement of cell proliferation was performed colorimetrically by 3-(4,5-dimethylthiazol-2-yl)-5-(3-carboxymethoxyphenyl)-2-(4-sulphophenyl)-2H-tetrazolium, inner salt (MTS) assay, using the CellTiter96 AQueous One Solution Reagent (Promega, Madison, Wis.). Cells were exposed to MTS for 3 hours and absorbance was measured using a microplate reader (Molecular Devices, Sunnyvale, Calif.) at an optical density (OD) of 490 nm. […]

MCF-7 cells [3] = test: Sulforhodamine B (SRB) cell proliferation assay; assay type: cell-based; conditions: Homo sapiens, MCF7, MCF-7, 72 hours drug treatment
Protocol: as §1, §2

caspase-3 = test: Apoptotic mechanism in cancer cells; assay type: cell-based
MCF-7 cells [4] = test: Cell cycle analysis by flow cytometry (propidium iodide); assay type: cell-based, human; conditions: for G0/G1 % / G2/M % / S % / Sub-G1 %: mean ± S.E.M.
Protocol: The flow cytometric evaluation of the cell cycle status was performed as described previously. Briefly, 2×10^6 cells were centrifuged, washed twice with ice-cold PBS, and fixed in 70% ethanol. Tubes containing the cell pellets were stored at 4° C. for at least 24 hours. Cells were then centrifuged at 1000×g for 10 min and the supernatant was discarded. The pellets were washed twice with 5 ml of PBS and then stained with 0.5 ml of propidium iodide (0.1% in 0.6% Triton-X in PBS) and 0.5 ml of RNase A (2 mg/ml) for 45 minutes in dark. Samples were then analyzed on a FACSCalibur flow cytometer (Beckman Coulter Inc., Fullerton, Calif.).
To investigate the precise mechanisms of cell death, the effect of 9-cloro-noscapine and other halogenated noscapine analogs on percent G2/M cells (mitotic index) and percent sub-G1 cells (apoptotic index) was examined as a function of dose and time in MCF-7 cells using fluorescence activated cell sorting (FACS) analysis. The effect of all compounds including noscapine was evaluated at three doses-5 μM, 10 μM and 25 μM for 0, 24, 48 and 72 hours of drug treatment. […] Fluorescently labeled DNA is a good indicator of cell cycle progression and cell death. An unreplicated complement of diploid (2N) DNA cells represents the G1 phase while duplicated tetraploid (4N) DNA cells represent G2 and M phases. Cells in the process of DNA duplication between diploid and tetraploid peaks represent S phase when DNA is being synthesized. Less than diploid DNA appears in populations of dying cells that degrade their DNA to different extents. Treatment of MCF-7 cells with these compounds for 0, 24, 48 and 72 hours led to profound perturbations of the cell cycle profile at 25 μM (FIGS. 3 A-D). […] The distribution of cell population over G0/G1, S, G2/M and sub-G1 phases of the cell cycle for 25 μM concentration is shown in Table 1.

[5] = tested on: 1A9/PTX22 (paclitaxel-resistant variant); test: Inhibition of cell proliferation; assay type: cell-based
[6] = tested on: normal human fibroblast cells; test: Cell cycle progression in normal cells; assay type: cell-based
[7] = tested on: 1A9 (ovarian cancer cells); test: Inhibition of cell proliferation; assay type: cell-based

Structure (SMILES): COc1ccc2c(c1OC)C(=O)O[C@@H]2[C@H]1c2c(c(Cl)c3c(c2OC)OCO3)CCN1C [9-Cl-nos, (S)-3-((R)-9-chloro-4-methoxy-6-methyl-5,6,7,8-tetrahydro-[1,3]dioxolo[4,5-g]isoquinolin-5-yl)-6,7-dimethoxyisobenzofuran-1(3H)-one]
- nuclear morphology, features of apoptotic cells (MDA-MB-231 cells [1]): condensed chromosomes, numerous fragmented micronuclei, and apoptotic bodies are evident
- IC50 (MDA-MB-231 cells [2]): 3500 ± 400 nM
- IC50 (MCF-7 cells [3]): 1900 ± 300 nM
- caspase-3 activation (caspase-3): associated with activation of the key executioner cysteine protease, caspase-3
- G0/G1 % (MCF-7 cells [4]; 25 μM, 0 h): 69 ± 5.6%
- G2/M % (MCF-7 cells [4]; 25 μM, 0 h): 20.7 ± 3.4%
- S % (MCF-7 cells [4]; 25 μM, 0 h): 7.5 ± 1.6%
- Sub-G1 % (MCF-7 cells [4]; 25 μM, 0 h): 1.4 ± 0.5%
- G0/G1 % (MCF-7 cells [4]; 25 μM, 24 h): 11.5 ± 2.7%
- G2/M % (MCF-7 cells [4]; 25 μM, 24 h): 59.7 ± 5.2%
- S % (MCF-7 cells [4]; 25 μM, 24 h): 4.3 ± 1.4%
- Sub-G1 % (MCF-7 cells [4]; 25 μM, 24 h): 15.3 ± 2.5%
- accumulation of cells in the G2/M phase (in words) (MCF-7 cells [4]; 25 μM, 24 hours): massive accumulation of cells in the G2/M phase
- G0/G1 % (MCF-7 cells [4]; 25 μM, 48 h): 8 ± 3.3%
- G2/M % (MCF-7 cells [4]; 25 μM, 48 h): 42.4 ± 3.8%
- S % (MCF-7 cells [4]; 25 μM, 48 h): 4 ± 1.1%
- Sub-G1 % (MCF-7 cells [4]; 25 μM, 48 h): 37.8 ± 3.2%
- G0/G1 % (MCF-7 cells [4]; 25 μM, 72 h): 5.9 ± 1.9%
- G2/M % (MCF-7 cells [4]; 25 μM, 72 h): 35.3 ± 3.9%
- S % (MCF-7 cells [4]; 25 μM, 72 h): 4.1 ± 1.4%
- Sub-G1 % (MCF-7 cells [4]; 25 μM, 72 h): 50.2 ± 2.5%
- percent sub-G1 cells compared with noscapine (MCF-7 cells [4]; lower doses (5 μM and 10 μM), 72 hours): higher
- inhibition of cell proliferation (in words) [5]: effectively inhibits cell proliferation
- effect on cell cycle of normal cells [6]: without affecting the cell cycle
- inhibition of cell proliferation (in words) [7]: effectively inhibits cell proliferation
